Measured values: patent US20250092016A1, “COMPOUNDS AND COMPOSITIONS FOR THE TREATMENT OF CORONAVIRAL RELATED DISEASES” (priority 2021, published 2025)

Target: SARS-CoV-2 main protease (M^pro) (Severe acute respiratory syndrome coronavirus 2, UniProt P0DTD1)
Test: Rapid-Fire MS Biochemical Assay measuring Mpro activity (5 nM Mpro)
Settings: Table 1B, Mpro inhibition, 5 μM substrate peptide, 120 min, read-out: Rapid-Fire Assay IC50

`N#C[C@@H]1CN(c2cnc(C(F)(F)F)c(F)c2)C(=O)N1c1cncc2ccccc12` (single isomer, unassigned) [Compound 77b] showed an IC50 of 20 to 200 nM.

`N#C[C@H]1CN(c2ccc(C(F)F)cn2)C(=O)N1c1cncc2ccccc12` (single isomer, unassigned) [Compound 78a] gave an IC50 of less than 20 nM.

With `N#C[C@@H]1CN(c2ccc(C(F)F)cn2)C(=O)N1c1cncc2ccccc12` (single isomer, unassigned) [Compound 78b] the IC50 was greater than 1000 nM.

With `Cc1ncc(N2C[C@H](C#N)N(c3cncc4ccccc34)C2=O)cn1` (single isomer, unassigned) [Compound 79a] the IC50 was 20 to 200 nM.

`Cc1ncc(N2C[C@@H](C#N)N(c3cncc4ccccc34)C2=O)cn1` (single isomer, unassigned) [Compound 79b] was tested, and the IC50 was greater than 1000 nM.

For `Cc1cc(Cl)cnc1N1C[C@H](C#N)N(c2cncc3ccccc23)C1=O` (single isomer, unassigned) [Compound 80a], the IC50 was 20 to 200 nM.

`Cc1cc(Cl)cnc1N1C[C@@H](C#N)N(c2cncc3ccccc23)C1=O` (single isomer, unassigned) [Compound 80b] gave an IC50 greater than 1000 nM.

With `N#C[C@H]1CN(c2ccc(C(F)(F)F)nn2)C(=O)N1c1cncc2ccccc12` (single isomer, unassigned) [Compound 81a] the IC50 was less than 20 nM.

In the case of `N#C[C@@H]1CN(c2ccc(C(F)(F)F)nn2)C(=O)N1c1cncc2ccccc12` (single isomer, unassigned) [Compound 81b], the IC50 is reported as greater than 1000 nM.

`Cc1ccc(C(F)(F)F)nc1N1C[C@H](C#N)N(c2cncc3ccccc23)C1=O` (single isomer, unassigned) [Compound 82a] showed an IC50 of 20 to 200 nM.

Molecule `Cc1ccc(C(F)(F)F)nc1N1C[C@@H](C#N)N(c2cncc3ccccc23)C1=O` (single isomer, unassigned) [Compound 82b] has an IC50 greater than 1000 nM.

`N#C[C@H]1CN(c2ccc(OC(F)F)cc2F)C(=O)N1c1cncc2ccccc12` (single isomer, unassigned) [Compound 83a] showed an IC50 of 20 to 200 nM.

Molecule `N#C[C@@H]1CN(c2ccc(OC(F)F)cc2F)C(=O)N1c1cncc2ccccc12` (single isomer, unassigned) [Compound 83b] has an IC50 greater than 1000 nM.

`CC(C)(O)c1ccc(N2C[C@H](C#N)N(c3cncc4ccccc34)C2=O)cc1` (single isomer, unassigned) [Compound 84a] was tested, and the IC50 was 20 to 200 nM.

`CC(C)(O)c1ccc(N2C[C@@H](C#N)N(c3cncc4ccccc34)C2=O)cc1` (single isomer, unassigned) [Compound 84b] gave an IC50 greater than 1000 nM.

Work on `CS(=O)(=O)c1ccc2cncc(N3C(=O)N(c4ccc(F)c(F)c4)C[C@@H]3C#N)c2c1` (single isomer, unassigned) [Compound 85a] yielded an IC50 of less than 20 nM.

Work on `CS(=O)(=O)c1ccc2cncc(N3C(=O)N(c4ccc(F)c(F)c4)C[C@H]3C#N)c2c1` (single isomer, unassigned) [Compound 85b] yielded an IC50 greater than 1000 nM.

With `CS(=O)(=O)c1ccc2cncc(N3C(=O)N(c4cc(F)cc(F)c4)C[C@@H]3C#N)c2c1` (single isomer, unassigned) [Compound 86a] the IC50 was 20 to 200 nM.

`CS(=O)(=O)c1ccc2cncc(N3C(=O)N(c4cc(F)cc(F)c4)C[C@H]3C#N)c2c1` (single isomer, unassigned) [Compound 86b] showed an IC50 greater than 1000 nM.

`N#C[C@H]1CN(c2ccc(F)c(Cl)c2)C(=O)N1c1cncc2ccccc12` (single isomer, unassigned) [Compound 87a] was tested, and the IC50 was less than 20 nM.

`N#C[C@@H]1CN(c2ccc(F)c(Cl)c2)C(=O)N1c1cncc2ccccc12` (single isomer, unassigned) [Compound 87b] was tested, and the IC50 was greater than 1000 nM.

`Cc1ncc(C(F)(F)F)cc1N1C[C@H](C#N)N(c2cncc3ccccc23)C1=O` (single isomer, unassigned) [Compound 88a] was tested, and the IC50 was less than 20 nM.

With `Cc1ncc(C(F)(F)F)cc1N1C[C@@H](C#N)N(c2cncc3ccccc23)C1=O` (single isomer, unassigned) [Compound 88b] the IC50 was greater than 1000 nM.

For `N#C[C@H]1CN(c2cccc(OC(F)F)c2)C(=O)N1c1cncc2ccccc12` (single isomer, unassigned) [Compound 89a], the IC50 was less than 20 nM.

With `N#C[C@@H]1CN(c2cccc(OC(F)F)c2)C(=O)N1c1cncc2ccccc12` (single isomer, unassigned) [Compound 89b] the IC50 was greater than 1000 nM.

With `N#Cc1ccc(C(F)(F)F)cc1N1C[C@H](C#N)N(c2cncc3ccccc23)C1=O` (single isomer, unassigned) [Compound 90a] the IC50 was less than 20 nM.

`N#Cc1ccc(C(F)(F)F)cc1N1C[C@@H](C#N)N(c2cncc3ccccc23)C1=O` (single isomer, unassigned) [Compound 90b] showed an IC50 greater than 1000 nM.

For `N#C[C@H]1CN(c2ccc(OC(F)(F)F)cc2)C(=O)N1c1cncc2ccccc12` (single isomer, unassigned) [Compound 91a], the IC50 was less than 20 nM.

Work on `N#C[C@@H]1CN(c2ccc(OC(F)(F)F)cc2)C(=O)N1c1cncc2ccccc12` (single isomer, unassigned) [Compound 91b] yielded an IC50 greater than 1000 nM.

For `N#C[C@H]1CN(c2cccc(OC(F)(F)F)c2)C(=O)N1c1cncc2ccccc12` (single isomer, unassigned) [Compound 92a], the IC50 was less than 20 nM.

In the case of `N#C[C@@H]1CN(c2cccc(OC(F)(F)F)c2)C(=O)N1c1cncc2ccccc12` (single isomer, unassigned) [Compound 92b], the IC50 is reported as 200 to 1000 nM.

Molecule `N#C[C@H]1CN(c2cnc(C(F)(F)F)nc2)C(=O)N1c1cncc2ccccc12` (single isomer, unassigned) [Compound 93a] has an IC50 of less than 20 nM.

`N#C[C@@H]1CN(c2cnc(C(F)(F)F)nc2)C(=O)N1c1cncc2ccccc12` (single isomer, unassigned) [Compound 93b] was tested, and the IC50 was greater than 1000 nM.

`CC(C)c1ccc(N2C[C@H](C#N)N(c3cncc4ccccc34)C2=O)cn1` (single isomer, unassigned) [Compound 94a] showed an IC50 of less than 20 nM.

In the case of `CC(C)c1ccc(N2C[C@@H](C#N)N(c3cncc4ccccc34)C2=O)cn1` (single isomer, unassigned) [Compound 94b], the IC50 is reported as greater than 1000 nM.

Molecule `COc1nc(C(F)(F)F)ccc1N1C[C@H](C#N)N(c2cncc3ccccc23)C1=O` (single isomer, unassigned) [Compound 95a] has an IC50 of less than 20 nM.

`COc1nc(C(F)(F)F)ccc1N1C[C@@H](C#N)N(c2cncc3ccccc23)C1=O` (single isomer, unassigned) [Compound 95b] showed an IC50 greater than 1000 nM.

`Cn1c(C(F)(F)F)ccc(N2C[C@H](C#N)N(c3cncc4ccccc34)C2=O)c1=O` (single isomer, unassigned) [Compound 96a] was tested, and the IC50 was 20 to 200 nM.

`Cn1c(C(F)(F)F)ccc(N2C[C@@H](C#N)N(c3cncc4ccccc34)C2=O)c1=O` (single isomer, unassigned) [Compound 96b] gave an IC50 greater than 1000 nM.

`N#C[C@H]1CN(c2ccc(C(F)(F)F)cn2)C(=O)N1c1cncc2ccccc12` (single isomer, unassigned) [Compound 97a] was tested, and the IC50 was less than 20 nM.

`N#C[C@@H]1CN(c2ccc(C(F)(F)F)cn2)C(=O)N1c1cncc2ccccc12` (single isomer, unassigned) [Compound 97b] was tested, and the IC50 was greater than 1000 nM.

For `Cc1cc(N2C[C@H](C#N)N(c3cncc4ccccc34)C2=O)cnc1C` (single isomer, unassigned) [Compound 98a], the IC50 was less than 20 nM.

`Cc1cc(N2C[C@@H](C#N)N(c3cncc4ccccc34)C2=O)cnc1C` (single isomer, unassigned) [Compound 98b] gave an IC50 greater than 1000 nM.

For `N#C[C@H]1CN(c2ccc(C(F)(F)F)cc2)C(=O)N1c1cncc2ccccc12` (single isomer, unassigned) [Compound 99a], the IC50 was less than 20 nM.

`N#C[C@@H]1CN(c2ccc(C(F)(F)F)cc2)C(=O)N1c1cncc2ccccc12` (single isomer, unassigned) [Compound 99b] was tested, and the IC50 was 200 to 1000 nM.

Molecule `COc1ncc(C(F)(F)F)cc1N1C[C@H](C#N)N(c2cncc3ccccc23)C1=O` (single isomer, unassigned) [Compound 100a] has an IC50 of less than 20 nM.

`COc1ncc(C(F)(F)F)cc1N1C[C@@H](C#N)N(c2cncc3ccccc23)C1=O` (single isomer, unassigned) [Compound 100b] was tested, and the IC50 was 200 to 1000 nM.

In the case of `Cc1ccc(OC(F)F)cc1N1C[C@H](C#N)N(c2cncc3ccccc23)C1=O` (single isomer, unassigned) [Compound 101a], the IC50 is reported as less than 20 nM.

`Cc1ccc(OC(F)F)cc1N1C[C@@H](C#N)N(c2cncc3ccccc23)C1=O` (single isomer, unassigned) [Compound 101b] showed an IC50 greater than 1000 nM.

With `Cc1cc(N2C[C@H](C#N)N(c3cncc4ccccc34)C2=O)cc(C)n1` (single isomer, unassigned) [Compound 102a] the IC50 was less than 20 nM.

`Cc1cc(N2C[C@@H](C#N)N(c3cncc4ccccc34)C2=O)cc(C)n1` (single isomer, unassigned) [Compound 102b] showed an IC50 of 200 to 1000 nM.

Work on `COc1cc(Cl)ccc1N1C[C@H](C#N)N(c2cncc3ccccc23)C1=O` (single isomer, unassigned) [Compound 103a] yielded an IC50 of less than 20 nM.

`COc1cc(Cl)ccc1N1C[C@@H](C#N)N(c2cncc3ccccc23)C1=O` (single isomer, unassigned) [Compound 103b] was tested, and the IC50 was greater than 1000 nM.

Molecule `N#C[C@H]1CN(c2cncc(C(F)(F)F)c2)C(=O)N1c1cncc2ccccc12` (single isomer, unassigned) [Compound 104a] has an IC50 of less than 20 nM.

Work on `N#C[C@@H]1CN(c2cncc(C(F)(F)F)c2)C(=O)N1c1cncc2ccccc12` (single isomer, unassigned) [Compound 104b] yielded an IC50 greater than 1000 nM.

With `COc1ccc(F)cc1N1C[C@H](C#N)N(c2cncc3ccccc23)C1=O` (single isomer, unassigned) [Compound 105a] the IC50 was less than 20 nM.

`COc1ccc(F)cc1N1C[C@@H](C#N)N(c2cncc3ccccc23)C1=O` (single isomer, unassigned) [Compound 105b] gave an IC50 greater than 1000 nM.

`N#C[C@H]1CN(c2cccc(C(F)(F)F)c2)C(=O)N1c1cncc2ccccc12` (single isomer, unassigned) [Compound 106a] showed an IC50 of less than 20 nM.

`COc1cc(C(F)(F)F)ncc1N1C[C@H](C#N)N(c2cncc3ccccc23)C1=O` (single isomer, unassigned) [Compound 107a] showed an IC50 of 20 to 200 nM.

`COc1cc(C(F)(F)F)ncc1N1C[C@@H](C#N)N(c2cncc3ccccc23)C1=O` (single isomer, unassigned) [Compound 107b] gave an IC50 greater than 1000 nM.
